Type in all cases: in vivo
Assay [1] relates to Beet Armyworm (Spodoptera exigua, LAPHEG). Nature of the assay: Bioassay on Beet Armyworm (BAW), 128-well diet tray assay. The procedure, abridged: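 Second-instar larvae, one to five per well, placed on artificial diet surface-treated with 50 μg/cm^2 compound applied in 90:10 acetone-water and dried. Held 5–7 days at 25° C., 14:10 light-dark. Percent mortality recorded per well and averaged over eight wells.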

For assay [2], the system named is Cabbage Looper (Trichoplusia ni, TRIPNI). In words: Bioassay on Cabbage Looper (CL), 128-well diet tray assay. The following applies: Trichoplusia ni. The procedure, abridged: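 Test molecule is dissolved in 90:10 acetone-water and applied at 50 μg/cm^2 onto artificial diet, then dried. One to five second-instar larvae go into each of eight wells. Trays, sealed but vented, stay at 25° C., 14:10 light-dark, five to seven days, after which mortality is averaged.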

The test system of assay [3] is Yellow Fever Mosquito (Aedes aegypti, AEDSAE). In words: Bioassay on Yellow Fever Mosquito (YFM), 96-well plate larval assay. The following applies: for YFM rating: Yellow Fever Mosquito, 96-well plate larval assay; for YFM (Biological Results, rating): Species YFM (Yellow Fever Mosquito). The gist of the method:
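Compound stocks at 4000 ppm in DMSO were diluted with 90:10 water/acetone, and 15 μL aliquots were dispensed into six replicate plates. About 1-day-old larvae in liver-powder water were added per well. Plates were covered and held at room temperature for 3 days before each well was scored for mortality.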

The mark [4] stands for this setting: Beet Armyworm, 128-well diet tray assay, read-out: BAW rating.
The mark [5] stands for this setting: Cabbage Looper, 128-well diet tray assay, read-out: CL rating.
[6] abbreviates: Species BAW (Beet Armyworm), read-out: BAW (Biological Results, rating).
Where [7] appears, read: Species CL (Cabbage Looper), read-out: CL (Biological Results, rating).

Molecules are shown by their SMILES. Like-named read-outs stand apart in the source and are kept apart here.

For `C[C@]1(c2ccc(OC(F)(F)F)cc2)[C@H](C(=O)Nc2ccc(Cl)c(C(=O)Nc3ccc(F)cc3)c2)C1(Cl)Cl` (relative stereo) [PF32, trans-2-Chloro-5-(2,2-dichloro-3-methyl-3-(4-(trifluoromethoxy)phenyl)cyclopropanecarboxamido)-N-(4-fluorophenyl)benzamide], the pest or weed control at 50 µg/cm2 in assay [1] (setting [4]) and in assay [2] (setting [5]) was 50 to 100% throughout. The YFM rating result in assay [3] is given as “A (80-100)”.

In the case of `O=C(Nc1ncc(F)cn1)c1cc(NC(=O)[C@H]2[C@H](c3cc(Cl)cc(Cl)c3)C2(Cl)Cl)ccc1Cl` (relative stereo) [F222, trans-2-Chloro-5-(2,2-dichloro-3-(3,5-dichlorophenyl)cyclopropane-1-carboxamido)-N-(5-fluoropyrimidin-2-yl)benzamide], the pest or weed control at 50 µg/cm2 in assay [1] (setting [6]) and in assay [2] (setting [7]) was 50 to 100% each time. The “YFM (Biological Results, rating)” value in assay [3] was “A (80-100)”.

As for `Cn1ncc2cc(NC(=O)c3cc(NC(=O)[C@H]4[C@H](c5cc(Cl)cc(Cl)c5)C4(Cl)Cl)ccc3Cl)cnc21` (relative stereo) [F476, 2-Chloro-5-(trans)-(2,2-dichloro-3-(3,5-dichlorophenyl)cyclopropane-1-carboxamido)-N-(1-methyl-1H-pyrazolo[3,4-b]pyridin-5-yl)benzamide], the pest or weed control at 50 µg/cm2 in assay [1] (setting [4]) and in assay [2] (setting [5]) was 50 to 100% each time. Further, the YFM rating result in assay [3] was “A (80-100)”.

In the case of `O=C(Nc1ccc2sccc2c1)c1cc(NC(=O)[C@H]2[C@H](c3cc(Cl)cc(Cl)c3)C2(Cl)Cl)ccc1Cl` (relative stereo) [F452, trans-N-(Benzo[b]thiophen-5-yl)-2-chloro-5-(2,2-dichloro-3-(3,5-dichlorophenyl)cyclopropane-1-carboxamido)benzamide], the pest or weed control at 50 µg/cm2 in assay [1] (setting [4]) and in assay [2] (setting [5]) was 50 to 100% in each case. The YFM rating entry in assay [3] is “A (80-100)”.

With `Cc1cc(N)ccc1NC(=O)c1cc(NC(=O)[C@H]2[C@H](c3cc(Cl)cc(Cl)c3)C2(Cl)Cl)ccc1Cl` (relative stereo) [F195, trans-N-(4-Amino-2-methylphenyl)-2-chloro-5-(2,2-dichloro-3-(3,5-dichlorophenyl)cyclopropane-1-carboxamido)benzamide], the pest or weed control at 50 µg/cm2 in assay [1] (setting [6]) and in assay [2] (setting [7]) was 50 to 100% throughout. In assay [3], the “YFM (Biological Results, rating)” value is “A (80-100)”.

With `COc1ccc(NC(=O)c2cc(NC(=O)[C@H]3[C@H](c4cc(Cl)cc(Cl)c4)C3(Cl)Cl)ccc2Cl)cc1N` (relative stereo) [F199, trans-N-(3-Amino-4-methoxyphenyl)-2-chloro-5-(2,2-dichloro-3-(3,5-dichlorophenyl)cyclopropane-1-carboxamido)benzamide], the pest or weed control at 50 µg/cm2 in assay [1] (setting [6]) and in assay [2] (setting [7]) was 50 to 100% each time. Also, the “YFM (Biological Results, rating)” value in assay [3] is listed as “A (80-100)”.

On to `COc1cc(NC(=O)c2cc(NC(=O)[C@H]3[C@H](c4cc(Cl)cc(Cl)c4)C3(Cl)Cl)ccc2Cl)ccc1F` (relative stereo) [PF52, trans-2-Chloro-5-(2,2-dichloro-3-(3,5-dichlorophenyl)cyclopropane-1-carboxamido)-N-(4-fluoro-3-methoxyphenyl)benzamide], for which the pest or weed control at 50 µg/cm2 in assay [1] (setting [4]) and in assay [2] (setting [5]) was 50 to 100% throughout. In assay [3], the YFM rating result is on record as “A (80-100)”.

For `Nc1c(F)cnc(NC(=O)c2cc(NC(=O)[C@H]3[C@H](c4cc(Cl)c(Cl)c(Cl)c4)C3(Cl)Cl)ccc2Cl)c1F` [F372, N-(4-Amino-3,5-difluoropyridin-2-yl)-2-chloro-5-((1R,3R)-2,2-dichloro-3-(3,4,5-trichlorophenyl)cyclopropane-1-carboxamido)benzamide], the pest or weed control at 50 µg/cm2 in assay [1] (setting [6]) and in assay [2] (setting [7]) was 50 to 100% each time. Further, in assay [3], the “YFM (Biological Results, rating)” value is listed as “A (80-100)”.

As for `CN(C(=O)c1cc(NC(=O)C2C(c3cc(Cl)cc(Cl)c3)C2(Cl)Br)ccc1Cl)c1ccc(F)cc1` (stereo not drawn) [F167, 5-(trans)-2-Bromo-2-chloro-3-(3,5-dichlorophenyl)cyclopropanecarboxamido)-2-chloro-N-(4-fluorophenyl)-N-methylbenzamide], the pest or weed control at 50 µg/cm2 in assay [1] (setting [6]) and in assay [2] (setting [7]) was 50 to 100% each time. Also, the “YFM (Biological Results, rating)” value in assay [3] is on record as “B (More than 0-Less than 80)”.

Turning to `Nc1ccc(NC(=O)c2cc(NC(=O)[C@H]3[C@H](c4cc(Cl)cc(Cl)c4)C3(Cl)Cl)ccc2Cl)c(F)c1` (relative stereo) [F175, trans-N-(4-amino-2-fluorophenyl)-2-chloro-5-(2,2-dichloro-3-(3,5-dichlorophenyl)cyclopropane-1-carboxamido)benzamide], the pest or weed control at 50 µg/cm2 in assay [1] (setting [6]) and in assay [2] (setting [7]) was 50 to 100% throughout. Besides, the “YFM (Biological Results, rating)” value in assay [3] is “A (80-100)”.

Regarding `C=C(F)c1cc(NC(=O)c2cc(NC(=O)[C@H]3[C@H](c4cc(Cl)cc(Cl)c4)C3(Cl)Cl)ccc2Cl)cnc1F` (relative stereo) [F400, 2-Chloro-5-(trans-2,2-dichloro-3-(3,5-dichlorophenyl)cyclopropane-1-carboxamido)-N-(6-fluoro-5-(1-fluorovinyl)pyridin-3-yl)benzamide], the pest or weed control at 50 µg/cm2 in assay [1] (setting [4]) and in assay [2] (setting [5]) was 50 to 100% throughout. Also, the YFM rating result in assay [3] was “A (80-100)”.

Turning to `Nc1c(F)cc(NC(=O)c2cc(NC(=O)[C@H]3[C@H](c4cc(Cl)cc(Cl)c4)C3(Cl)Cl)ccc2Cl)cc1F` [F378, N-(4-Amino-3,5-difluorophenyl)-2-chloro-5-((1R,3R)-2,2-dichloro-3-(3,5-dichlorophenyl)cyclopropane-1-carboxamido)benzamide], the pest or weed control at 50 µg/cm2 in assay [1] (setting [4]) and in assay [2] (setting [5]) was 50 to 100% each time. Moreover, the YFM rating entry in assay [3] is given as “B (More than 0-Less than 80)”.

Consider `Cc1cc(N)ccc1NC(=O)c1cc(NC(=O)[C@H]2[C@H](c3cc(Cl)c(Cl)c(Cl)c3)C2(Cl)Cl)ccc1Cl` (relative stereo) [F227, trans-N-(4-Amino-2-methylphenyl)-2-chloro-5-(2,2-dichloro-3-(3,4,5-trichlorophenyl)cyclopropane-1-carboxamido)benzamide], for which the pest or weed control at 50 µg/cm2 in assay [1] (setting [6]) and in assay [2] (setting [7]) was 50 to 100% throughout. Further, the “YFM (Biological Results, rating)” value in assay [3] is listed as “A (80-100)”.

`O=C(Nc1ccc(F)cc1F)c1cc(NC(=O)[C@H]2[C@H](c3cc(Cl)cc(C(F)F)c3)C2(Cl)Cl)ccc1Cl` (relative stereo) [F558, 2-Chloro-5-(trans-2,2-dichloro-3-(3-chloro-5-(difluoromethyl)phenyl)cyclopropane-1-carboxamido)-N-(2,4-difluorophenyl)benzamide]: the pest or weed control at 50 µg/cm2 in assay [1] (setting [4]) and in assay [2] (setting [5]) was 50 to 100% in each case. Moreover, the YFM rating entry in assay [3] is recorded as “A (80-100)”.

Take `CN(C(=O)c1cccc(NC(=O)[C@H]2[C@H](c3ccc(Cl)c(Cl)c3)C2(Cl)Cl)c1F)c1ccccc1` (relative stereo) [F70, trans-3-(2,2-Dichloro-3-(3,4-dichlorophenyl)cyclopropane-1-carboxamido)-2-fluoro-N-methyl-N-phenylbenzamide]: the pest or weed control at 50 µg/cm2 in assay [1] (setting [6]) and in assay [2] (setting [7]) was 50 to 100% throughout. Moreover, the “YFM (Biological Results, rating)” value in assay [3] is “A (80-100)”.

For the origin of these results see US10219516B2, “Molecules having pesticidal utility, and intermediates, compositions, and processes, related thereto” (priority 2015, dated 2019).
